From PubChem BioAssay AID290 (DTP/NCI, 2004)
Where “and” joins values, the source holds several entries; their conditions need not be identical. Equal values may be shown once. Results filed as inconclusive are left out.

System: mice, P1798 lymphosarcoma sc, survival or tumor weight T/C
Test: NCI In Vivo Anticancer Drug Screen. Data for tumor model P1798 Lymphosarcoma (subcutaneous) in unknown mice
Details: endpoint: mean tumor weight, higher = larger tumour
Protocol: The antitumor activity of compounds was measured in mice bearing transplantable tumors. Survival or tumor size were measured and the results are expressed as the measurement made in the treated group (T) divided by the measurement made in the vehicle treated control group (C). The tumor model used in this assay is P1798 Lymphosarcoma (subcutaneous) in unknown mice

[1] = dose: 12.5 mg/kg/injection, schedule: Q01DX010 (ip), vehicle: saline
[2] = dose: 25.0 mg/kg/injection, schedule: Q01DX010 (ip), vehicle: saline
[3] = dose: 62.5 mg/kg/injection, schedule: Q01DX010 (ip), vehicle: carboxymethylcellulose (CMC)
[4] = dose: 125.0 mg/kg/injection, schedule: Q01DX010 (ip), vehicle: carboxymethylcellulose (CMC)
[5] = dose: 250.0 mg/kg/injection, schedule: Q01DX010 (ip), vehicle: carboxymethylcellulose (CMC)
[6] = dose: 50.0 mg/kg/injection, schedule: Q01DX010 (ip), vehicle: carboxymethylcellulose (CMC)

COS(C)(=O)=O
T/C [1]: 98 % of control | T/C [2]: 80 % of control | T/C (dose: 50.0 mg/kg/injection, schedule: Q01DX010 (ip), vehicle: saline): 81 % of control | T/C (dose: 100.0 mg/kg/injection, schedule: Q01DX010 (ip), vehicle: saline): 57 % of control

C[C@@H]1C[C@H]2CC[C@H](O2)[C@H](C)C(=O)O[C@@H](C)C[C@@H]2CC[C@@H](O2)[C@@H](C)C(=O)O[C@H](C)C[C@H]2CC[C@H](O2)[C@H](C)C(=O)O[C@@H](C)C[C@@H]2CC[C@@H](O2)[C@@H](C)C(=O)O1
T/C (dose: 45.0 mg/kg/injection, schedule: Q01DX011 (ip), vehicle: other): 93 % of control | T/C (dose: 90.0 mg/kg/injection, schedule: Q01DX011 (ip), vehicle: other): 89 % of control | T/C (dose: 180.0 mg/kg/injection, schedule: Q01DX011 (ip), vehicle: other): 83 % of control | T/C (dose: 360.0 mg/kg/injection, schedule: Q01DX011 (ip), vehicle: other): 61 % of control

c1ccc(COCC[P+](c2ccccc2)(c2ccccc2)c2ccccc2)cc1
T/C (dose: 5.0 mg/kg/injection, schedule: Q01DX010 (ip), vehicle: saline): 53 % of control | T/C (dose: 8.0 mg/kg/injection, schedule: Q01DX010 (ip), vehicle: saline): 49 % of control

Clc1ncnc2nc[nH]c12
T/C (dose: 31.25 mg/kg/injection, schedule: Q01DX010 (ip), vehicle: carboxymethylcellulose (CMC)): 106 % of control | T/C [3]: 95 % of control | T/C [4]: 92 % of control | T/C [5]: 79 % of control

CCCCn1cnc2c(=S)nc[nH]c21
T/C [6]: 78 % of control | T/C (dose: 100.0 mg/kg/injection, schedule: Q01DX010 (ip), vehicle: carboxymethylcellulose (CMC)): 43 % of control

C[C@@H]1C[C@@H]([C@H](O)CC2CC(=O)NC(=O)C2)C(=O)[C@@H](C)C1
T/C (dose: 1.6 mg/kg/injection, schedule: Q01DX010 (ip), vehicle: water): 86 % of control | T/C (dose: 3.1 mg/kg/injection, schedule: Q01DX010 (ip), vehicle: water): 96 % of control | T/C (dose: 6.3 mg/kg/injection, schedule: Q01DX010 (ip), vehicle: water): 96 % of control | T/C (dose: 12.5 mg/kg/injection, schedule: Q01DX010 (ip), vehicle: water): 98 % of control

CC[C@]1(O)C[C@H]2CN(CCc3c([nH]c4ccccc34)[C@@](C(=O)OC)(c3cc4c(cc3OC)N(C=O)[C@H]3[C@@](O)(C(=O)OC)[C@H](OC(C)=O)[C@]5(CC)C=CCN6CC[C@]43[C@@H]65)C2)C1
T/C (dose: 0.01 mg/kg/injection, schedule: Q01DX010 (ip), vehicle: water): 105 % of control | T/C (dose: 0.03 mg/kg/injection, schedule: Q01DX010 (ip), vehicle: water): 105 % of control | T/C (dose: 0.1 mg/kg/injection, schedule: Q01DX001 (ip), vehicle: saline): 120 % of control | T/C (dose: 0.3 mg/kg/injection, schedule: Q01DX001 (ip), vehicle: saline): 45 % of control | T/C (dose: 0.5 mg/kg/injection, schedule: Q01DX001 (ip), vehicle: saline): 40 % of control | T/C (dose: 0.68 mg/kg/injection, schedule: Q01DX001 (ip), vehicle: saline): 10 % of control | T/C (dose: 0.7 mg/kg/injection, schedule: Q01DX001 (ip), vehicle: saline): 36 % of control | T/C (dose: 1.35 mg/kg/injection, schedule: Q01DX001 (ip), vehicle: saline): 3 % of control | T/C (dose: 125.0 micrograms/kg/injection, schedule: Q01DX010 (ip), vehicle: water): 16 % of control

N=C(N)c1ccc(Nc2ccc(C(=N)N)cc2)cc1
T/C (dose: 3.0 mg/kg/injection, schedule: Q01DX010 (ip), vehicle: saline): 105 % of control | T/C (dose: 6.0 mg/kg/injection, schedule: Q01DX010 (ip), vehicle: saline): 117 % of control | T/C (dose: 6.25 mg/kg/injection, schedule: Q01DX010 (ip), vehicle: methylcellulose (MC)): 66 % of control | T/C (dose: 12.0 mg/kg/injection, schedule: Q01DX010 (ip), vehicle: saline): 77 % of control | T/C (dose: 12.5 mg/kg/injection, schedule: Q01DX010 (ip), vehicle: methylcellulose (MC)): 77 % of control

Nc1nc(F)nc2c1ncn2C1OC(CO)C(O)C1O (stereo unspecified)
T/C (dose: 0.75 mg/kg/injection, schedule: Q01DX011 (ip), vehicle: saline): 73 % of control | T/C (dose: 1.5 mg/kg/injection, schedule: Q01DX011 (ip), vehicle: saline): 30 % of control

CC(=O)[C@@]1(O)CC[C@H]2[C@@H]3C[C@H](C)C4=CC(=O)C=C[C@]4(C)[C@@]3(F)[C@@H](O)C[C@@]21C
T/C (dose: 8.0 mg/kg/injection, schedule: Q01DX010 (sc), vehicle: steriod suspending solution): 37 % of control | T/C (dose: 16.0 mg/kg/injection, schedule: Q01DX010 (sc), vehicle: steriod suspending solution): 18 % of control

CC1(O)CCC2C3CCC4=CC(=O)CCC4C3CCC21C (stereo unspecified)
T/C (dose: 75.0 mg/kg/injection, schedule: Q01DX010 (sc), vehicle: steriod suspending solution): 116 % of control | T/C (dose: 150.0 mg/kg/injection, schedule: Q01DX010 (sc), vehicle: steriod suspending solution): 115 % of control | T/C (dose: 300.0 mg/kg/injection, schedule: Q01DX010 (sc), vehicle: steriod suspending solution): 109 % of control | T/C (dose: 600.0 mg/kg/injection, schedule: Q01DX010 (sc), vehicle: steriod suspending solution): 122 % of control

O=c1[nH]c(=O)n(C2CC(O)C(CO)O2)cc1F (stereo unspecified)
T/C (dose: 25.0 mg/kg/injection, schedule: Q01DX010 (ip), vehicle: carboxymethylcellulose (CMC)): 42 % of control | T/C [6]: 30 % of control

CN(N=O)C(N)=O
T/C [1]: 10 % of control | T/C [2]: 13 % of control

CCCNc1ncnc2[nH]ncc12
T/C (dose: 5.0 mg/kg/injection, schedule: Q01DX010 (ip), vehicle: water): 71 % of control | T/C (dose: 10.0 mg/kg/injection, schedule: Q01DX010 (ip), vehicle: water): 54 % of control

[I][Hg][CH2]C1COC([CH2][Hg][I])CO1 (stereo unspecified)
T/C (dose: 1.8 mg/kg/injection, schedule: Q01DX010 (ip), vehicle: carboxymethylcellulose (CMC)): 64 % of control | T/C (dose: 3.75 mg/kg/injection, schedule: Q01DX010 (ip), vehicle: carboxymethylcellulose (CMC)): 85 % of control | T/C (dose: 7.5 mg/kg/injection, schedule: Q01DX010 (ip), vehicle: carboxymethylcellulose (CMC)): 81 % of control | T/C (dose: 30.0 mg/kg/injection, schedule: Q01DX010 (ip), vehicle: carboxymethylcellulose (CMC)): 65 % of control

CN(C)/N=N/c1nc[nH]c1C(N)=O
T/C (dose: 75.0 mg/kg/injection, schedule: Q01DX015 (ip), vehicle: carboxymethylcellulose (CMC)): 73 % of control | T/C (dose: 100.0 mg/kg/injection, schedule: Q01DX015 (ip), vehicle: carboxymethylcellulose (CMC)): 69 % of control | T/C (dose: 125.0 mg/kg/injection, schedule: Q01DX015 (ip), vehicle: carboxymethylcellulose (CMC)): 57 % of control | T/C (dose: 150.0 mg/kg/injection, schedule: Q01DX015 (ip), vehicle: carboxymethylcellulose (CMC)): 52 % of control

C1CN1c1nc(N2CC2)nc(N2CC2)n1
T/C (dose: 0.06 mg/kg/injection, schedule: Q01DX010 (ip), vehicle: saline): 77 % of control and 78 % of control | T/C (dose: 0.12 mg/kg/injection, schedule: Q01DX010 (ip), vehicle: saline): 78 % of control and 86 % of control | T/C (dose: 0.25 mg/kg/injection, schedule: Q01DX010 (ip), vehicle: saline): 44 % of control and 54 % of control

NC(=O)N(CCCl)N=O
T/C (dose: 1.0 mg/kg/injection, schedule: Q01DX010 (ip), vehicle: carboxymethylcellulose (CMC)): 104 % of control | T/C (dose: 2.0 mg/kg/injection, schedule: Q01DX010 (ip), vehicle: carboxymethylcellulose (CMC)): 115 % of control | T/C (dose: 4.0 mg/kg/injection, schedule: Q01DX010 (ip), vehicle: carboxymethylcellulose (CMC)): 116 % of control | T/C (dose: 8.0 mg/kg/injection, schedule: Q01DX010 (ip), vehicle: carboxymethylcellulose (CMC)): 61 % of control

O=c1cn[nH]c(=O)[nH]1
T/C (dose: 375.0 mg/kg/injection, schedule: Q01DX010 (ip), vehicle: carboxymethylcellulose (CMC)): 90 % of control

O=CCC(O)C(O)C(O)CO (stereo unspecified)
T/C (dose: 16.0 mg/kg/injection, schedule: Q01DX010 (ip), vehicle: carboxymethylcellulose (CMC)): 67 % of control | T/C (dose: 31.2 mg/kg/injection, schedule: Q01DX010 (ip), vehicle: carboxymethylcellulose (CMC)): 74 % of control | T/C [3]: 70 % of control | T/C [4]: 36 % of control and 61 % of control | T/C [5]: 44 % of control | T/C (dose: 500.0 mg/kg/injection, schedule: Q01DX010 (ip), vehicle: carboxymethylcellulose (CMC)): 42 % of control | T/C (dose: 1000.0 mg/kg/injection, schedule: Q01DX010 (ip), vehicle: carboxymethylcellulose (CMC)): 19 % of control
